Source: US5834318A, “Screening of combinatorial peptide libraries for selection of peptide ligand useful in affinity purification of target proteins” (Bayer Corporation, priority 1995, dated 1998)
Each block holds one substance with its values, some of them ahead of it. Where no end group is shown, it is not given here.

Columns and labels:
Factor IX zymogen [1] = biological target: T1, Factor IX zymogen (Homo sapiens, UniProt P00740); test: Plasma-derived Factor IX affinity chromatography; assay type: binding; set-up: A 1.0 ml injection of human citrated plasma was contacted with an acetyl-YANKGY-TSK column; from tissue; host or cells: human citrated plasma; details: 1.0 ml human citrated plasma
Description: (§1) Affinity Purification of Target Protein Affinity purification of target protein was used to assess the ability to purify proteins with the peptide sequences identified as being specific. […] The deprotected peptide-resin was dry packed into a blank column as described above and washed with 20 column volumes of 20% methanol/water, then 10 column volumes of Buffer A, and assayed by sequential 1.0 mL injections of 1) Buffer A blank, 2) 0.5% HSA, and 3) target protein in 0.5% HSA. Non-specifically bound proteins were washed off the column in a step gradient of 1.0M NaCl for two column volumes, and the target protein was eluted from the column in a weak acid solution.
Plasma-Derived Factor IX Affinity Chromatography The relevance of this library-derived peptide ligand is to purify human Factor IX zymogen from unpurified human plasma. A 1.0 ml injection of human citrated plasma was contacted with an acetyl-YANKGY-TSK column in the manner taught in the above example. Flow through and acid peaks were collected on ice and immediately assayed for total protein, SDS-PAGE and Western blot analyses. […] Samples were normalized to total protein as described before. There are numerous protein bands in the starting material, the predominant being albumin. The Factor IX band is not visible in any fraction in the Commassie stained gel. […] With one pass over the YANKGY-TSK affinity column, analyzing total protein and by Western blot, the approximate purification was 200 fold from plasma.

streptavidin = streptavidin (Streptomyces avidinii, UniProt P22629); details: well known in the art; cited from earlier work
[2] = biological target: T2, human serum albumin (HSA) (Homo sapiens, UniProt P02768); test: Binding of carrier protein to peptide-resin column; details: 0.5% HSA; eluted by the salt wash, no peak during acid elution
T2 construct: purchased Miles, Inc., Clayton, N.C
Description: as §1
(§2) Factor IX/Albumin Affinity Purification The library-derived peptide identified above binds and purifies a mixture of a commercially available, highly purified Factor IX zymogen in a solution of human serum albumin. […] This peptide-resin was tested for its ability to bind Factor IX. […] However, this was eluted by the salt wash as evidenced by the absence of a peak during the acid elution. In contrast, when Factor IX was added to the HSA, there was a distinct peak eluted by the acid.

Factor IX zymogen [3] = biological target: T1, Factor IX zymogen; test: Two color peptide library immunostaining chromatography of hexamer library; assay type: binding; set-up: purchased Enzyme Research Labs; South Bend, Ind; details: 6 beads isolated from two independent analyses
Description: (§3) HPLC Library Immuno-Assays To differentiate between detecting reagent-binding and target-binding peptide-resin beads, we developed a two color peptide library staining chromatography technique. FIG. 1 is a schematic of the preferred embodiment of the technique. All assays were performed on an Ultrafast Microprotein Analyzer in a 2.1 mm I.D.×150mm long stainless steel column (volume=520 μL) at 37° C. Dry library resin was packed into the column by vacuum, then the column was attached to the detector flow cell and washed with 20 column volumes of 20% methanol/water, 5 column volumes of 100% Buffer A (10 mM HEPES, 100 mM NaCl, 2.5 mM CaCl2, 20 mg/mL D-mannitol; all from Sigma Chemical Co.; St. Louis, Mo.), then 5 column volumes of 50% Buffer B (Buffer A with 1.0M NaCl) to clean the resin. The complete assay comprised of seven chromatography injection programs sequentially linked and executed as a batch (EXChrom Chromatography Data System, Scientific Software, Inc.; San Ramon, Calif.). Each injection program was 90 min long. At the start of each injection program, a 1.0 mL sample loop of reagent was injected at 200 μL/min for 3.5 min, then allowed to perfuse the column at 5 μL/min for 50 min before the flow increased to 400/μL/min for the duration of the run. At 60-75 min, a salt gradient from 0.1M to 1.0M NaCl eluted non-specific binding proteins. […]

Factor IX zymogen [4] = biological target: T1, Factor IX zymogen; test: Factor IX/albumin affinity purification on peptide-resin column; assay type: binding; set-up: purchased Enzyme Research Labs; South Bend, Ind
Description: as §1, §2
A direct correlation was seen between the acid peak area and the amount of Factor IX injected. […] Aliquots of fractions taken from this run were assayed for Factor IX detection by ELISA (data not shown). […] Factor IX may be partially denatured during the acid elution which could account for the lack of full recovery based on ELISA results. Indeed, controls of adding acid to Factor IX prior to analysis in the ELISA do show a 40 to 50% decrease in the ELISA signal. The remainder of the fractions were precipitated in cold (-20° C.) acetone and analyzed by reducing SDS-PAGE, normalizing sample to total protein.

[5] = biological target: T3, Ribonuclease S (RNase S) protein (Bos taurus, UniProt P61823); test: Two color peptide library immunostaining chromatography (HPLC library immunoassay), validation; assay type: binding; details: peptide-resin diluted 1:20 w/w with TSK-Blank
T3 sequence (P61823 47-150 limits assumed): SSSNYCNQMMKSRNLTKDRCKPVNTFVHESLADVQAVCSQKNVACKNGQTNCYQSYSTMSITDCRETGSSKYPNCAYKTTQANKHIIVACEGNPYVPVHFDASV
Description: as §3

RNase S protein = biological target: T4, RNase S protein (Bos taurus, UniProt P61823); test: HPLC affinity chromatography validation on peptide-resin; assay type: binding; details: 42 nmoles RNase S protein injected; 2 % acetic acid wash, peak at 22 min
T4 sequence (P61823 47-150 limits assumed): T3 sequence (P61823 47-150 limits assumed)
Description: as §1
Ribonuclease S Protein Affinity Chromatography In this embodiment the HPLC affinity methodology is validated by the previously described RNase S protein/YNFEVL peptide system. Peptide synthesis was performed as taught in the previous section. […] 42 nmoles of RNase S protein was injected in a 1.0 mL volume onto the column at 200 μL/min for 3 min. The flow was decreased to 5 μL/min for 5 min to perfuse the column, then increased to 400 μL/min to wash off the unbound protein. At 13 min, an injection of 1.0 mL Buffer A with 1.0M NaCl eluted non-specific binding proteins, then the column was returned to 0.1M NaCl until 19 min when a steep gradient to 2 % acetic acid in water and a flow of 800 μL/min began. […]

T1 sequence (P00740 29-461 limits assumed): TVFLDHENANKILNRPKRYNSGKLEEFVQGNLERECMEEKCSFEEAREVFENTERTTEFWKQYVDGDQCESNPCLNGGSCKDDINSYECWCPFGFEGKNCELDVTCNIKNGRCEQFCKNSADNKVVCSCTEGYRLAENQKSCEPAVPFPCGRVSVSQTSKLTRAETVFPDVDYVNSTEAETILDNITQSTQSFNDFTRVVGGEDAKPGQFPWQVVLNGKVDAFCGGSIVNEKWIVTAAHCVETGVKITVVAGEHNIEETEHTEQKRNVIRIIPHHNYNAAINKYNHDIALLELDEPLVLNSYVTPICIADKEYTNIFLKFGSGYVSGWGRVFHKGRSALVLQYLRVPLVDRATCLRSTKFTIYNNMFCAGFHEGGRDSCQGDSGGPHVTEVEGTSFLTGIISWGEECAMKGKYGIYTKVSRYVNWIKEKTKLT
T2 sequence (P02768 25-609): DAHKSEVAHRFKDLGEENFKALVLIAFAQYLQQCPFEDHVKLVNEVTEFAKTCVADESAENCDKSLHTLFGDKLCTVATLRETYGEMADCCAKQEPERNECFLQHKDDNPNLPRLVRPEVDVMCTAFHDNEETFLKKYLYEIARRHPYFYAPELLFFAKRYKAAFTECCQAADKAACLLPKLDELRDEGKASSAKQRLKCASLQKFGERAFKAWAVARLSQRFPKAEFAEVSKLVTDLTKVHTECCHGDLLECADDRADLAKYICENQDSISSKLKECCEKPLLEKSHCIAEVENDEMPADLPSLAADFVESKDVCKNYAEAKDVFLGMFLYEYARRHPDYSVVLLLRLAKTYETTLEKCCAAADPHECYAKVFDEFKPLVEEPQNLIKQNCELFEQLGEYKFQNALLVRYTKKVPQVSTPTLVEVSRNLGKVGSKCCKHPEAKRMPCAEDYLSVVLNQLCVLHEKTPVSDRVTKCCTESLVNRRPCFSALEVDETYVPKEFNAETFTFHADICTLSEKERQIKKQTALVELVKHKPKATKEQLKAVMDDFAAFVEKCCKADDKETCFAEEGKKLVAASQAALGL

Substance: HPQ
binding to streptavidin (streptavidin): will bind streptavidin

Substance: YANKGY [YANKGY-TSK]
HSA binding to column [2]: bound to the column to a small extent
bead staining in library immunoassay (red = target specific) (Factor IX zymogen [3]): red bead
Factor IX detected in NaCl peak by ELISA, % of amount injected (Factor IX zymogen [4]; 220 μg Factor IX in HSA): 17%
Factor IX detected in acid peak by ELISA, % of amount injected (Factor IX zymogen [4]; 220 μg Factor IX in HSA): 25%
Factor IX detected in flow through peak by ELISA (Factor IX zymogen [4]; 220 μg Factor IX in HSA): No Factor IX was detected
Factor IX in NaCl wash and acid peak by Western blot (Factor IX zymogen [4]; 220 μg Factor IX in HSA): dark bands corresponding to Factor IX
Factor IX in flow-through fractions by Western blot (Factor IX zymogen [4]; 220 μg Factor IX in HSA): no detectable Factor IX
binding of Factor IX to peptide-resin (Factor IX zymogen [4]; Factor IX in 0.5% HSA, acid elution): does bind Factor IX
approximate purification of Factor IX from plasma (Factor IX zymogen [1]; one pass, by total protein and Western blot): ~200 fold

Now from value to substance:

Factor IX in acid peak by Western blot (Factor IX zymogen [1]): a very large band in the acid peak
Factor IX in flow through by Western blot (Factor IX zymogen [1]): no Factor IX in the flow through
Substance: Ac-YANKGY [acetyl-YANKGY-TSK]

frequency of dark blue beads (non-specific or immunoreagent-specific interactions) [5]: less than 0.01%
frequency of red beads (target protein interacting with peptide-resin beads) ([5]; RNase S protein in HSA carrier): 5%
elution of bound RNase S protein (RNase S protein): target protein eluted in the acid wash
Substance: YNFEVL [YNFEVL-TSK]

bead staining in library immunoassay (red = target specific) (Factor IX zymogen [3]): red bead
Substance: YNYFNQ
